Reference: the RepoRT retention time repository (doi:10.1016/j.jhazmat.2019.121712)

Test: Thermo Scientific Acclaim RSLC 120 C18, 100 × 2.1 mm, 2.2 µm, 30 °C; A: 90% water + 10% methanol + 0.01% formic acid + 5 mM ammonium formate; B: methanol + 0.01% formic acid + 5 mM ammonium formate; gradient (min/%B) 0.1/1 3/39 14/99.9 16/99.9
Conditions: stereoisomer not certain

Structure (SMILES)	LC retention time [min]
CC(O)CCn1cc(C(=O)c2cccc3ccccc23)c2ccccc21 (configuration not stated)	9.91
COc1ccc(CC(C)N)cc1OC (configuration not stated)	3.94
CN1CCC23c4c5ccc(O)c4OC2C(=O)CCC3C1C5 (configuration not stated)	2.91
COP(=S)(OC)Oc1ccc([N+](=O)[O-])c(C)c1	9.92
CCOP(=S)(OCC)SCCS(=O)CC (configuration not stated)	7.86
Cc1cc(O)ccc1CC(C)N (configuration not stated)	2.98
CNC(C)Cc1ccccc1 (configuration not stated)	4.21
CCCCCn1nc(C(=O)Nc2cccc3ccccc23)c2ccccc21	13
CCCCCn1cc(C(=O)Cc2cccc(OC)c2)c2ccccc21	11.6
CN(C)C(=O)C(c1ccccc1)c1ccccc1	8.57
O=c1ccc2cc(OC3OC(CO)C(O)C(O)C3O)c(O)cc2o1 (configuration not stated)	3.69
CCCc1nc(C)c2c(=O)[nH]c(-c3cc(C(=O)CN4CCN(CC)CC4)ccc3OCC)nn12	7.16
CCOc1cc(NC(C)=O)ccc1C(=O)OC	6.63
CCNC(=O)NC(=O)C(C#N)=NOC	5.6
COC(=O)C1=C(C)NC(C)=C(C(=O)OCCN(C)Cc2ccccc2)C1c1cccc([N+](=O)[O-])c1 (configuration not stated)	8.39
CCS(=O)(=O)CCSP(=O)(OC)OC	4.15
CCCCCn1c(C)c(C(=O)c2cccc3ccccc23)c2ccccc21	12.6
CCCc1nc(C)c2c(=O)[nH]c(-c3cc(S(=O)(=O)N4CCCCC4)ccc3OCC)nn12	10.6
CCN(CC)C(=O)C(C)Oc1cccc2ccccc12 (configuration not stated)	10.2
COc1ccc(CC(C)N)c(OC)c1OC (configuration not stated)	4.16
CCCC(NC)C(=O)c1ccc2c(c1)OCO2 (configuration not stated)	4.99
CCCCCn1nc(C(=O)Oc2cccc3cccnc23)c2ccccc21	11.4
CNC(=O)ON=CC(C)(C)S(C)=O (configuration not stated)	3.5
CNC(C)C(=O)c1ccc(C)cc1 (configuration not stated)	4.49

Structure (SMILES)	LC retention time [min]
CN(C)C1CSSSC1	3.16
CN1C(=O)CCC1c1cccnc1 (configuration not stated)	3.75
O=C(c1cccc2ccccc12)c1cn(CCCCCO)c2ccccc12	10
CC(CCc1ccc(O)cc1)NCCc1ccc(O)c(O)c1 (configuration not stated)	4.21
NC(=O)CS(=O)C(c1ccccc1)c1ccccc1 (configuration not stated)	6.76
CCOP(=S)(OCC)SC1OCCOC1SP(=S)(OCC)OCC (configuration not stated)	12.1
CCCc1ccc(C(=O)c2cn(CCC)c3ccccc23)c2ccccc12	12.7
CCC(C)C(=O)OC1CC(C)C=C2C=CC(C)C(CCC3CC(O)CC(=O)O3)C21 (configuration not stated)	12
NC(N)=Nc1nc(CSCCC(N)=NS(N)(=O)=O)cs1	3.24
Cc1nnc(-c2ccccc2)c(=O)n1N	5.24
CCOC(=O)NC(=S)Nc1ccccc1NC(=S)NC(=O)OCC	8.61
CC(C)OP(=O)(OC(C)C)SCc1ccccc1	10.6
CC(C)(C)NCC(O)COc1cccc2c1CCCC2=O (configuration not stated)	4.84
COC(=O)C1C(O)CCC2CN3CCc4c([nH]c5ccccc45)C3CC21 (configuration not stated)	5.08
CCC(CC)(CNC(=O)CCCO)c1cccc(OC)c1	8.98
COP(=O)(OC)Oc1ccc([N+](=O)[O-])cc1	6.36
CCCCCc1cc(O)c2c(c1)OC(C)(C)C1CCC(CO)=CC21 (configuration not stated)	12.5
CCCC(Cc1ccccc1)N1CCCC1 (configuration not stated)	5.56
CC12CCC(=O)C=C1C=CC1C2CCC2(C)C1CCC21CCC(=O)O1 (configuration not stated)	9.77
CNC(=O)ON=C(C)C(C)S(C)=O (configuration not stated)	3.35
CC1=C(C(=O)Nc2ccccc2)SCCO1	7.46
COc1cccc(C2(O)CCCCC2CN)c1 (configuration not stated)	5.19
CCCNC(C)C(=O)Nc1c(C)csc1C(=O)OC (configuration not stated)	4.69
COP(=S)(OC)Oc1ccc(S(=O)(=O)N(C)C)cc1	7.99

Structure (SMILES)	LC retention time [min]
CCCc1nn(C)c2c(=S)nc(-c3cc(C(=S)N4CCN(C)CC4)ccc3OCC)[nH]c12	11.5
CCC=CCC1=C(C)C(OC(=O)C2C(C=C(C)C)C2(C)C)CC1=O (configuration not stated)	13.3
CNC(=O)Oc1cc(C)c(SC)c(C)c1	9.34
CC(C(=O)c1ccc2c(c1)OCO2)N1CCCC1 (configuration not stated)	4.13
CC1C2Cc3ccc(O)cc3C1(C)CCN2CCc1ccccc1 (configuration not stated)	6.08
COCCN(C(=O)CS(=O)(=O)O)c1c(C)cccc1C	5.54
c1cnc2cc3c(cc2n1)C1CNCC3C1	3.63
CCC1(c2ccc(N)cc2)CCC(=O)NC1=O (configuration not stated)	4.99
CC(C)N(CCC(C(N)=O)(c1ccccc1)c1ccccn1)C(C)C (configuration not stated)	4.74
Cc1nnc(SCC2=C(C(=O)O)N3C(=O)C(NC(=O)Cn4cnnn4)C3SC2)s1 (configuration not stated)	4.16
CC(N)Cc1ccc(O)cc1 (configuration not stated)	2.98
COc1ccc(CC2c3cc(OC)c(OC)cc3CCN2C)cc1OC (configuration not stated)	4.71
NCCc1ccc(O)cc1	2.28
O=c1[nH]c2c(c(=O)n1C1CCCCC1)CCC2	8.27
CNC(=O)C(C)SCCSP(=O)(OC)OC (configuration not stated)	5.02
O=C(O)CCCn1cc(C(=O)c2cccc3ccccc23)c2ccccc21	9.33
COC(=O)C1C2CCC(CC1OC(=O)c1ccccc1)N2 (configuration not stated)	5.15
COP(=O)(OC)Oc1ccc(SC)c(C)c1	8.82
COc1ccc2c3c1OC1C(=O)CCC4(O)C(C2)N(C)CCC314 (configuration not stated)	3.61
NC(=O)c1cccnc1	2.73
CNC(=O)Oc1cc(C)cc(C)c1	7.78
CC(C)(C)N1CCC(c2ccccc2)(c2ccccc2)CC1	6.72
CN(C)c1ccccc1	6.26
C=C1CC(=CC)C(=O)OC2CCN3CC=C(COC(=O)C1(C)O)C23 (configuration not stated)	4.17

The next lines start with the values.

LC retention time [min]	Structure (SMILES)
7.36	NC(=O)N1c2ccccc2C=Cc2ccccc21
4.37	O=C1NC(=O)C2CC=CCC12 (configuration not stated)
6.46	NC(=O)N1c2ccccc2CC(=O)c2ccccc21
5.81	COc1cc2c(cc1OC)C(=O)C(CC1CCN(Cc3ccccc3)CC1)C2 (configuration not stated)
10.1	CN(C)c1nc(N(C)C)nc(N(C)C)n1
7.16	COC(=O)c1ccc(C)cc1C1=NC(C)(C(C)C)C(=O)N1 (configuration not stated)
6.09	CC(NC(=O)C(N)CC(=O)O)C(=O)NC1C(C)(C)SC1(C)C (configuration not stated)
4.49	Cc1c(N(C)CS(=O)(=O)O)c(=O)n(-c2ccccc2)n1C
5.49	CC(C)NCC(O)COc1cccc2[nH]c3ccccc3c12 (configuration not stated)
8.04	CCN(CC)CCOCCOC(=O)C(CC)(CC)c1ccccc1
9.03	CCOC(=O)C(CCc1ccccc1)NC(C)C(=O)N1Cc2ccccc2CC1C(=O)O (configuration not stated)
1.93	NC(N)=NS(=O)(=O)c1ccc(N)cc1
4.11	CN1CCN(CC(=O)N2c3ccccc3C(=O)Nc3cccnc32)CC1
9.38	O=C(O)c1cccc(Oc2ccccc2)c1
6.28	Cc1ccc(C(=CCN2CCCC2)c2ccccn2)cc1
2.23	Nc1ccc(S(N)(=O)=O)cc1
3.61	CN(C)CCc1c[nH]c2ccc(CC3COC(=O)N3)cc12 (configuration not stated)
5.76	COc1cc2[nH]c(C)c(CCN3CCN(c4ccccc4)CC3)c2cc1OC
6.23	CCN1CC(CCN2CCOCC2)C(c2ccccc2)(c2ccccc2)C1=O (configuration not stated)
6.98	CN(CCOc1ccc(CC2SC(=O)NC2=O)cc1)c1ccccn1 (configuration not stated)
2.84	CC1=C(C(=O)O)N2C(=O)C(NC(=O)C(N)c3ccc(O)cc3)C2SC1 (configuration not stated)
5.94	NC(=O)N1c2ccccc2CC(O)c2ccccc21 (configuration not stated)
4.78	CCCC(=O)Nc1ccc(OCC(O)CNC(C)C)c(C(C)=O)c1 (configuration not stated)

LC retention time [min]	Structure (SMILES)
7.63	OC(CCN1CCCCC1)(c1ccccc1)C1CC2C=CC1C2 (configuration not stated)
6.67	CSc1ccc(C(=O)c2[nH]c(=O)[nH]c2C)cc1
5.83	Cc1cccc2n[nH]nc12
5.66	C=CCOc1ccccc1OCC(O)CNC(C)C (configuration not stated)
9.65	CSC(=O)c1cccc2nnsc12
5.01	CCCCCC(C)N (configuration not stated)
10.9	CCCc1nn(C)c2c(=O)[nH]c(-c3cc(S(=O)(=O)N4CCCCC4)ccc3OCC)nc12
4.76	CC1(C)OCC2OC3(C(=O)O)OC(C)(C)OC3C2O1 (configuration not stated)
7.37	Cc1onc(-c2ccccc2)c1-c1ccc(S(N)(=O)=O)cc1
8.49	Nc1ccc(N=Nc2ccccc2)c(N)n1
3.62	C=CCN1CCCC1CNC(=O)c1cc2n[nH]nc2cc1OC (configuration not stated)
8.53	CC(C(=O)O)c1cccc(C(=O)c2ccccc2)c1 (configuration not stated)
6.78	CCCc1nn(C)c2c(=O)[nH]c(-c3cc(C(=O)N4CCN(CC)CC4)ccc3OCC)nc12
1.26	NC(=O)C1CCNCC1
4.46	CC(=O)OCCC(SC(C)=O)=C(C)N(C=O)Cc1cnc(C)nc1N
8.23	CCOC(=O)C(CCc1ccccc1)NC(C)C(=O)N1CC2(CC1C(=O)O)SCCS2 (configuration not stated)
8.68	COc1ccc2cccc(CCNC(C)=O)c2c1
4.49	O=C1N=CCC=N1
9.08	CC(=O)CC(c1ccccc1)c1c(O)c2ccccc2oc1=O (configuration not stated)
2.88	Nc1cc(-c2ccncc2)c[nH]c1=O
5.44	O=S(=O)(O)c1ccc2ccccc2c1
4.88	N=c1nc(N2CCCCC2)cc(N)n1O
